The record followed here is patent US11331299B2, “Medicinal use of serrulatane diterpenes” (The University of Sydney, priority 2016, dated 2022).

Assay [1] concerns the target HDAC9 (h) (Homo sapiens, UniProt Q9UKV0). Kind of assay: Epigenetic enzyme assay, Histone deacetylase (HDACs). It is filed as biochemical. The note with it: read-out: % Inhibition of Control Values.
Assay [2] concerns the target CREBBP(h) (Homo sapiens, UniProt Q92793). Kind of assay: Epigenetic enzyme assay, Histone acetyltransferases (HATs). The assay is classed as biochemical. The note with it: for inhibition at 10 µM: read-out: % Inhibition of Control Values; for IC50: Table 11, inhibition/concentration-response curve.
The target of assay [3] is NSD1 (h) (Homo sapiens, UniProt Q96L73). The experiment in a line: Epigenetic enzyme assay, Methyltransferases (MTs). It is filed as biochemical. The note with it: for inhibition at 10 µM: read-out: % Inhibition of Control Values.
Assay [4] concerns the target T1, Chemokine CXCR2 (IL-8RB) (Homo sapiens, UniProt P25025).
T1 construct: expressed in transfected cells; host or cells: CHO-K1 cells
T1 sequence (P25025 1-360): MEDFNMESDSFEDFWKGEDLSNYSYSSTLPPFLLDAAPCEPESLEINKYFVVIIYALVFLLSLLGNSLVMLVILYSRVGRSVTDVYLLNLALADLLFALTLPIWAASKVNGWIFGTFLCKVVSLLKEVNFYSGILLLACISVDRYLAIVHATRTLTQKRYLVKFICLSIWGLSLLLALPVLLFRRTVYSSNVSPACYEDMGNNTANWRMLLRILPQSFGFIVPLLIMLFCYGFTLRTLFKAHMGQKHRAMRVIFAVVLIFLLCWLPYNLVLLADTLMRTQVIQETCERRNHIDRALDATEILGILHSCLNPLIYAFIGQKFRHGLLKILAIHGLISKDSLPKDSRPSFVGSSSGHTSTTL
The experiment in a line: Chemokine CXCR2 (IL-8RB) radio ligand binding. The conditions noted are these: assay year 2015. The procedure:
The in vitro pharmacological studies were conducted by Eurofins PanLab (Taiwan) using the parameters shown in Table 13 with respect to appropriate literature references.

The target of assay [5] is T2, BRD3(1) (h) bromodomain (Homo sapiens, UniProt Q15059).
T2 construct: Bromodomain
T2 sequence (Q15059 34-140 limits assumed): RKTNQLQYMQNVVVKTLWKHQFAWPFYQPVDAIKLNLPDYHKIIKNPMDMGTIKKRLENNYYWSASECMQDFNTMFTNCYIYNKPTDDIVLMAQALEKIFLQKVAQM
The experiment in a line: Epigenetic binding assay, Bromodomain. The conditions noted are these: read-out: % Inhibition of Control Specific Binding.

The target in assay [6] is T3, sirtuin 1 (h) (inhibitor effect) (Homo sapiens, UniProt Q96EB6).
T3 sequence (Q96EB6 1-747): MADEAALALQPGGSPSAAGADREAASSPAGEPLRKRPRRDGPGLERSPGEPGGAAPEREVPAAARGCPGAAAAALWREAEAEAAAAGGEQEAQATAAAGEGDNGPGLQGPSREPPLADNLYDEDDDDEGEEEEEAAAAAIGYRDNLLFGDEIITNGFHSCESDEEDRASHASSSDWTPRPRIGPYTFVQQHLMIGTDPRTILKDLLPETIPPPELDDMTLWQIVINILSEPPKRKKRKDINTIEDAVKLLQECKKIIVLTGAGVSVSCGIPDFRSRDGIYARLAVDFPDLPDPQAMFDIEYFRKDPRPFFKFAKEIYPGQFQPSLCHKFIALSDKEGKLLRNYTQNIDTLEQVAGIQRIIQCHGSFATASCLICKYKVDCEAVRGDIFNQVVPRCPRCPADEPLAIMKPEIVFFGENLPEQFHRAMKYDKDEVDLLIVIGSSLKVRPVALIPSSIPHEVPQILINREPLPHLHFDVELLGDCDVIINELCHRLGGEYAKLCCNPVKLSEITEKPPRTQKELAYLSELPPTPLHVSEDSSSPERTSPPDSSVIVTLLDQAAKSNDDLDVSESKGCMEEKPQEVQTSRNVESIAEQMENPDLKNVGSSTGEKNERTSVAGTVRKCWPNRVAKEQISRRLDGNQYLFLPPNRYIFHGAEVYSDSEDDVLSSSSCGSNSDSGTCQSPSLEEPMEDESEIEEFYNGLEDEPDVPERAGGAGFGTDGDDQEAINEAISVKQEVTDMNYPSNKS
Kind of assay: Epigenetic enzyme assay, Sirtuins. The assay is classed as biochemical. The conditions noted are these: read-out: % Inhibition of Control Values.

The subject of assay [7] is MLL2(h) complex. The experiment in a line: Epigenetic enzyme assay, Methyltransferases (MTs). It is filed as biochemical, human. The conditions noted are these: for % Inhibition of Control Values: 10 μM.
Assay [8] addresses EZH1/EED/SUZ12 (h) (Homo sapiens, UniProt Q92800). Kind of assay: Epigenetic enzyme assay, Methyltransferases (MTs). The assay is classed as biochemical. The note with it: read-out: % Inhibition of Control Values.
The test system of assay [9] is H3K27 me3. The experiment in a line: Cell-based detection methyl modifications. The note with it: read-out: % Inhibition of Control Values.
The target of assay [10] is hDNMT3a (Homo sapiens, UniProt Q9Y6K1). Kind of assay: Epigenetic enzyme assay, DNA methyltransferases (DNMTs). The conditions noted are these: for inhibition at 10 µM: read-out: % Inhibition of Control Values. It is filed as biochemical.
Assay [11] has as its target T4, FBXL11 (h) (Homo sapiens, UniProt Q9Y2K7).
T4 sequence (Q9Y2K7 1-1162): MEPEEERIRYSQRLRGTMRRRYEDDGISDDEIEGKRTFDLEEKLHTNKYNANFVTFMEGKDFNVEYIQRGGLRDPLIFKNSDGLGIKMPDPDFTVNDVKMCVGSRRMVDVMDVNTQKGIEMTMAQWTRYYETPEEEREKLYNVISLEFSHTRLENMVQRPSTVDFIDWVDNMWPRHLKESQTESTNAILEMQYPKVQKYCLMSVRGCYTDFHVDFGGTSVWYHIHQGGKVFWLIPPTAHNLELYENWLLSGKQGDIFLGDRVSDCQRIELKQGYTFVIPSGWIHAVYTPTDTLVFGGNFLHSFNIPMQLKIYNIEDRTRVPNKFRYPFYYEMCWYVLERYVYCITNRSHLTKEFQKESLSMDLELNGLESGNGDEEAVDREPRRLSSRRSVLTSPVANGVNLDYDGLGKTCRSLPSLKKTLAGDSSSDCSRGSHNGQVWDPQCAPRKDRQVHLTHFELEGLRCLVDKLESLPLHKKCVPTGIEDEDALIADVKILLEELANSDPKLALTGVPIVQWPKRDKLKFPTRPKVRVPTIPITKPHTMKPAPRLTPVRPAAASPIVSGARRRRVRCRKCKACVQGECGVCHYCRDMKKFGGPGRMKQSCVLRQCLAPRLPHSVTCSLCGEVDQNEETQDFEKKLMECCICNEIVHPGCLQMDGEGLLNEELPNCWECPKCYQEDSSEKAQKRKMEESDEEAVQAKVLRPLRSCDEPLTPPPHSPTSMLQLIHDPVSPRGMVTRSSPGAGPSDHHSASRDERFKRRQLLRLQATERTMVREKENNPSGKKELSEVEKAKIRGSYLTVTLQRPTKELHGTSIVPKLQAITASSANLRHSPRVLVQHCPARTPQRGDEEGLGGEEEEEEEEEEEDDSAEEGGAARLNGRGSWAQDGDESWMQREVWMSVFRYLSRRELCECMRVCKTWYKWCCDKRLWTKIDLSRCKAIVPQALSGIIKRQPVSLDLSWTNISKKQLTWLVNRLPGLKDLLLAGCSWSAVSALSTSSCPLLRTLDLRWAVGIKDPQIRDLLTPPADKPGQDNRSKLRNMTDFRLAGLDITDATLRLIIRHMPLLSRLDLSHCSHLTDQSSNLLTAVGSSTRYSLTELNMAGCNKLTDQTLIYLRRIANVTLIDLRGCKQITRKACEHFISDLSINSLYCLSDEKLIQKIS
The experiment in a line: Epigenetic enzyme assay, Demethylases (KDMs). It is filed as biochemical. The conditions noted are these: read-out: % Inhibition of Control Values.

Chain of CREBBP(h) (Q92793 whole entry): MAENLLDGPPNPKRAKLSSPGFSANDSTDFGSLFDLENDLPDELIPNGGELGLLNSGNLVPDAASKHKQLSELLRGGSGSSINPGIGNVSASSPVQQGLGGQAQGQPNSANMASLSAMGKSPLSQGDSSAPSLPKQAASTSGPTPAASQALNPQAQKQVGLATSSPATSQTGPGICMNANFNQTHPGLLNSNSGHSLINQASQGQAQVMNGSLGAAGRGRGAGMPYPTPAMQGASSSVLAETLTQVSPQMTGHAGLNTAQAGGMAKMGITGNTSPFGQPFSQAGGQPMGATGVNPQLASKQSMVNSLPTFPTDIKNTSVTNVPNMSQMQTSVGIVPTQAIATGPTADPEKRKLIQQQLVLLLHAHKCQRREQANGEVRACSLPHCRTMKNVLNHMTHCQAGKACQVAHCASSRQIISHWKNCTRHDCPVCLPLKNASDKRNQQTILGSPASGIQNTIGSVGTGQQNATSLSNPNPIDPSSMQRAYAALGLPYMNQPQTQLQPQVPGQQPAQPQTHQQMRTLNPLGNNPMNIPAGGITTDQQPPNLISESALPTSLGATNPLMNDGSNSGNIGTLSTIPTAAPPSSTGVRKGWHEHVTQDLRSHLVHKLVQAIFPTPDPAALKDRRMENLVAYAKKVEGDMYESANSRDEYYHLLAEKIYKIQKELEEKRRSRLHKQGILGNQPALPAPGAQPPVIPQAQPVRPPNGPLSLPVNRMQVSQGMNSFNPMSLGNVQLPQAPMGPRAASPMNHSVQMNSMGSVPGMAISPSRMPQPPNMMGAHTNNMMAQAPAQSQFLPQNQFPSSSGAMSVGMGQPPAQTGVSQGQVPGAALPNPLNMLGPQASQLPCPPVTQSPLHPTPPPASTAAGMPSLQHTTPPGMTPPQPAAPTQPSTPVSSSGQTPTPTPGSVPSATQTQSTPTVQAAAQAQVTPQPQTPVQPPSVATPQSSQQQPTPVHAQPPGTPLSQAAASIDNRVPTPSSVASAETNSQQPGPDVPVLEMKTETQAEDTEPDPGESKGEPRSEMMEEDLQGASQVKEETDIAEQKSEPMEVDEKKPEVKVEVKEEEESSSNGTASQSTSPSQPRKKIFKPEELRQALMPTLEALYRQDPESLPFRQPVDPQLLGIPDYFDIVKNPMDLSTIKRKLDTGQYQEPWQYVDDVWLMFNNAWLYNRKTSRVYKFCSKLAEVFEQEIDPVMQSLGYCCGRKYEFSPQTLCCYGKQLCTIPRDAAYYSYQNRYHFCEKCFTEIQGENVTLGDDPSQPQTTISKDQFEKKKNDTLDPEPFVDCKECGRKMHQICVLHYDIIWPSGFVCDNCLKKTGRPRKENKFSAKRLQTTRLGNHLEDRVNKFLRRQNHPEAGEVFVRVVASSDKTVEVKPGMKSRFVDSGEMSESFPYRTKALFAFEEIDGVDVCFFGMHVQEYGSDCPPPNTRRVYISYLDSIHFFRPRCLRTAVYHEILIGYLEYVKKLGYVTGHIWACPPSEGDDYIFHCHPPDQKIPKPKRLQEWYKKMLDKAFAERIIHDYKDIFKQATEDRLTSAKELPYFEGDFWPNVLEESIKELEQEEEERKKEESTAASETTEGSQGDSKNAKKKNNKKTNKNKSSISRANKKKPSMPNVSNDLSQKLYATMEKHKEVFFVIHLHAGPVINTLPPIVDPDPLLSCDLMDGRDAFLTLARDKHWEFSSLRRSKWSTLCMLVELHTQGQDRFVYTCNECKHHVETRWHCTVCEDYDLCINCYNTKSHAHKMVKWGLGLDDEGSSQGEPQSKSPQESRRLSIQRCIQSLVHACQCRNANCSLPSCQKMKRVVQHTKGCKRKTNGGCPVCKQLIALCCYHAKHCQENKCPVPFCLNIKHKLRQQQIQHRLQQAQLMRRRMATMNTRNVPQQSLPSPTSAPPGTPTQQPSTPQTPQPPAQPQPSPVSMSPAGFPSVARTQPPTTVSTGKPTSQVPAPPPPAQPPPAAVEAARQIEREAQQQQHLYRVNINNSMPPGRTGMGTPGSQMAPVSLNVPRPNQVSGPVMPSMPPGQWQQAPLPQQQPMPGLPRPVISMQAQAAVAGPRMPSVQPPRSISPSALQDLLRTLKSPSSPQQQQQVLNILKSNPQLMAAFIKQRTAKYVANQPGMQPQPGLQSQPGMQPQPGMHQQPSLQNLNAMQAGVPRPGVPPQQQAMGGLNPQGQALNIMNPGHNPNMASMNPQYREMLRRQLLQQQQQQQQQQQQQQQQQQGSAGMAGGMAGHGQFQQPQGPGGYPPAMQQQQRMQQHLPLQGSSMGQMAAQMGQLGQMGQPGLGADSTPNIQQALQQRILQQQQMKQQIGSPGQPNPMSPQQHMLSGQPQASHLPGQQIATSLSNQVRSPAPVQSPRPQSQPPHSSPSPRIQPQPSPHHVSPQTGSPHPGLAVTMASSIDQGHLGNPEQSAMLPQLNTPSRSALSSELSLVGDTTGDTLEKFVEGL
Chain of EZH1/EED/SUZ12 (h) (Q92800 whole entry): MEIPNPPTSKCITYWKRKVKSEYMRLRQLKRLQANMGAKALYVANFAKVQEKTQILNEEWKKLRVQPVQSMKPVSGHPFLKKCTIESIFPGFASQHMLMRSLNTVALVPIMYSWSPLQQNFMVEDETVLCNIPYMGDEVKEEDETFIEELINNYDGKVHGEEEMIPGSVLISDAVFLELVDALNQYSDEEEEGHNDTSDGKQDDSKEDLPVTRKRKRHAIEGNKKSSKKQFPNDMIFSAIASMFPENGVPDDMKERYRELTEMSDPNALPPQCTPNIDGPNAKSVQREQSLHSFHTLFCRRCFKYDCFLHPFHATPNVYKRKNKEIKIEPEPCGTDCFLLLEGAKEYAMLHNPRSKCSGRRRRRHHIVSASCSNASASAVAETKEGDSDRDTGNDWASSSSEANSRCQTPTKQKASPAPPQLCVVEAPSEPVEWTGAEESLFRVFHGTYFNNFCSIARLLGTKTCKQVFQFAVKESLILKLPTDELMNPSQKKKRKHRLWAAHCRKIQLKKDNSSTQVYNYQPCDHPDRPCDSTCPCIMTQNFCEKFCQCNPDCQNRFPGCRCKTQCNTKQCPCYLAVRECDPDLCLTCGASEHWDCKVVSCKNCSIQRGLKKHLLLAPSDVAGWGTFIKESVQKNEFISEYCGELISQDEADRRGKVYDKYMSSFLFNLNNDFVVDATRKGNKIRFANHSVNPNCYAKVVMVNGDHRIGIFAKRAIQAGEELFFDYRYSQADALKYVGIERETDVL
Chain of EZH1/EED/SUZ12 (h) (O75530 whole entry partner): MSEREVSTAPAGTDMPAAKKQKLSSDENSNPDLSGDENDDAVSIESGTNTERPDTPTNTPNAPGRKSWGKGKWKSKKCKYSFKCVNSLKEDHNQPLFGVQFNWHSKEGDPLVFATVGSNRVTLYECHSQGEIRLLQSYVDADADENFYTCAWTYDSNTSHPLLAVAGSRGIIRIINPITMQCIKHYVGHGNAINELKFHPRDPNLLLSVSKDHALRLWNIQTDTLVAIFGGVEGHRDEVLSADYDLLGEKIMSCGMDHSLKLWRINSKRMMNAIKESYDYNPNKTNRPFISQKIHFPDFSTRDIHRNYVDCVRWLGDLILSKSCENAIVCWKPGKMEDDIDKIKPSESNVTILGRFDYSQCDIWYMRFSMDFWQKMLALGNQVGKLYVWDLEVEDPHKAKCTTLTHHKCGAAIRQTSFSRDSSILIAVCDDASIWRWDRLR
Chain of EZH1/EED/SUZ12 (h) (Q15022 whole entry partner): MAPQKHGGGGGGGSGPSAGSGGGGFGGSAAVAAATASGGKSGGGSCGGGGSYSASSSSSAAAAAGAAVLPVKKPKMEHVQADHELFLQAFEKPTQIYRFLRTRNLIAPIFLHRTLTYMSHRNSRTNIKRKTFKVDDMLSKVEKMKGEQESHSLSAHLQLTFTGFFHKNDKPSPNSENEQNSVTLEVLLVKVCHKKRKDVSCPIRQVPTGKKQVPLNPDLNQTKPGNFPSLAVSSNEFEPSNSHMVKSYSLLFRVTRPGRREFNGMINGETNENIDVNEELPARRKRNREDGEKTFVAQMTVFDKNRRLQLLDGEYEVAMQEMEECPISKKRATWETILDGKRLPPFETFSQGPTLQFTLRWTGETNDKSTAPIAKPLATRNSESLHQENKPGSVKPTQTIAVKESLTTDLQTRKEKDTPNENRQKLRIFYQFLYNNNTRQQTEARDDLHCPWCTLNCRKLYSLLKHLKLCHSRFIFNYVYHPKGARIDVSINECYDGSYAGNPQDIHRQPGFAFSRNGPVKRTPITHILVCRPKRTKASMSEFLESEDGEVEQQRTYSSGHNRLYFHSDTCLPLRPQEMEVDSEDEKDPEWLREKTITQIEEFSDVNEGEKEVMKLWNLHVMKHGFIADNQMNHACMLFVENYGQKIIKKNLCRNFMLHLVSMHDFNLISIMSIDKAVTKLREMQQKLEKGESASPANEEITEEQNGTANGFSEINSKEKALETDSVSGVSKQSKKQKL

For `CC(C)=CCC[C@H](CO)[C@@H]1CC[C@@H](C)c2c1cc(C)c(O)c2O` [Compound 1, 7,8,18-trihydroxyserrulat-14-ene], the inhibition at 10 µM was -50% in assay [1]; 74% in [2]; 69% in assay [3]; 47% in assay [5]; 2% in assay [6]; -1% in assay [8]. Moreover, the inhibition at 10 µM in assay [9] is -8%; in assay [10] it was 3%; in [11], 34%. In addition, the 50% inhibitory concentration (IC50) is 3.9 µM in [2] and 4.9 µM in assay [3] (Table 11, inhibition/concentration-response curve, read-out: IC50). Moreover, in assay [4], the % control response at 10 µM worked out at 12%. Further, the “% Inhibition of Control Values” in assay [7] was determined as 6%.

Turning to `CC(C)=CCC[C@@H]1COc2c(C)cc(O)c3c2[C@H]1CC[C@H]3C` [Compound 3, 5,18-epoxy-8-hydroxyserrulat-14-ene], the inhibition at 10 µM was -9% in assay [1]; 43% in assay [2]; -10% in assay [3]; 13% in [5]; -5% in [6]; -12% in assay [8]. Further, the inhibition at 10 µM is 0% in [9], -31% in assay [10] and 11% in assay [11]. Besides, the % control response at 10 µM in assay [4] was 1%. Further, the “% Inhibition of Control Values” in [7] is −15%.

For the molecule `CC(C)=CCC[C@@H]1C(O)Oc2c(C)cc(O)c3c2[C@H]1CC[C@H]3C` (some centres unmarked) [Compound 2, 5,18-epoxyserrulat-14-en-8,18-diol], the inhibition at 10 µM in assay [1] is -1%; in assay [2], 78%; in assay [3], 29%; in assay [5], 17%; in [6], -3%; in assay [8], 3%. Also, the inhibition at 10 µM is -7% in assay [9], 3% in [10] and 2% in assay [11]. Besides, in assay [2], the midpoint of inhibition, the IC50, lay at 6.1 µM. Besides, the % control response at 10 µM in [4] was -7%. Moreover, in [7], the “% Inhibition of Control Values” is recorded as 3%.

Consider `Nc1ncnc2c1ncn2[C@@H]1O[C@H](CSCC[C@H](N)C(=O)O)[C@@H](O)[C@H]1O` [SAH], for which the half-maximal inhibitory concentration (IC50) stood at 24 µM in assay [7] (read-out: Reference IC50) and 0.052 µM in [10] (read-out: Reference IC50).

As usually defined, the inhibition is the drop in the measured response relative to a control, in per cent. By IC50 is commonly meant the concentration that inhibits the measured activity by half.
